Reference: ChEMBL document CHEMBL5113478, “7-Azaindole, 2,7-diazaindole, and 1H-pyrazole as core structures for novel anticancer agents with potential chemosensitizing properties” (Eur J Med Chem, 2022)

Tests used:
Type in all cases: functional
A549 [1] = assay: Antiproliferative activity against human A549 cells assessed as […] cell proliferation at 10 uM incubated for 48 hrs in presence of 15 uM of CDDP by WST-1 assay relative to control
A2780 [2] = assay: Antiproliferative activity against human A2780 cells assessed as […] cell proliferation at 10 uM incubated for 48 hrs by WST-1 assay relative to control
Jurkat [3] = assay: Antiproliferative activity against human Jurkat cells assessed as […] cell proliferation at 10 uM incubated for 48 hrs by WST-1 assay relative to control
PANC-1 [4] = assay: Antiproliferative activity against human PANC-1 cells assessed as […] cell proliferation at 10 uM incubated for 48 hrs by WST-1 assay relative to control
HT-29 [5] = assay: Antiproliferative activity against human HT-29 cells assessed as […] cell proliferation at 10 uM incubated for 48 hrs in presence of 15 uM of CDDP by WST-1 assay relative to control
MOLT-4 [6] = assay: Antiproliferative activity against human MOLT-4 cells assessed as […] cell proliferation at 10 uM incubated for 48 hrs in presence of 2 uM of CDDP by WST-1 assay relative to control
SAOS-2 [7] = assay: Antiproliferative activity against human SAOS-2 cells assessed as […] cell proliferation at 10 uM incubated for 48 hrs by WST-1 assay relative to control
MOLT-4 [8] = assay: Antiproliferative activity against human MOLT-4 cells assessed as […] cell proliferation at 10 uM incubated for 48 hrs by WST-1 assay relative to control
A2780 [9] = assay: Antiproliferative activity against human A2780 cells assessed as […] cell proliferation at 10 uM incubated for 48 hrs in presence of 2 uM of CDDP by WST-1 assay relative to control
MCF7 [10] = assay: Antiproliferative activity against human MCF7 cells assessed as […] cell proliferation at 10 uM incubated for 48 hrs by WST-1 assay relative to control
MCF7 [11] = assay: Antiproliferative activity against human MCF7 cells assessed as […] cell proliferation at 10 uM incubated for 48 hrs in presence of 10 uM of CDDP by WST-1 assay relative to control
SAOS-2 [12] = assay: Antiproliferative activity against human SAOS-2 cells assessed as […] cell proliferation at 10 uM incubated for 48 hrs in presence of 15 uM of CDDP by WST-1 assay relative to control
A549 [13] = assay: Antiproliferative activity against human A549 cells assessed as […] cell proliferation at 10 uM incubated for 48 hrs by WST-1 assay relative to control
HT-29 [14] = assay: Antiproliferative activity against human HT-29 cells assessed as […] cell proliferation at 10 uM incubated for 48 hrs by WST-1 assay relative to control
HeLa [15] = assay: Antiproliferative activity against human HeLa cells assessed as […] cell proliferation at 10 uM incubated for 48 hrs by WST-1 assay relative to control
HeLa [16] = assay: Antiproliferative activity against human HeLa cells assessed as […] cell proliferation at 10 uM incubated for 48 hrs in presence of 15 uM of CDDP by WST-1 assay relative to control
PANC-1 [17] = assay: Antiproliferative activity against human PANC-1 cells assessed as […] cell proliferation at 10 uM incubated for 48 hrs in presence of 15 uM of CDDP by WST-1 assay relative to control
Jurkat [18] = assay: Antiproliferative activity against human Jurkat cells assessed as […] cell proliferation at 10 uM incubated for 48 hrs in presence of 2 uM of CDDP by WST-1 assay relative to control

Row | Structure (SMILES) | Activity (A549 [1]) [%] | Activity (A2780 [2]) [%] | Activity (Jurkat [3]) [%] | Activity (PANC-1 [4]) [%] | Activity (HT-29 [5]) [%] | Activity (MOLT-4 [6]) [%] | Activity (SAOS-2 [7]) [%] | Activity (MOLT-4 [8]) [%] | Activity (A2780 [9]) [%] | Activity (MCF7 [10]) [%] | Activity (MCF7 [11]) [%] | Activity (SAOS-2 [12]) [%] | Activity (A549 [13]) [%] | Cell viability relative to control (HT-29 [14]) [%] | Activity (HeLa [15]) [%] | Activity (HeLa [16]) [%] | Activity (PANC-1 [17]) [%] | Activity (Jurkat [18]) [%]
1 | CCN(CC)c1ccc(CNC(=O)c2cc3cc(-c4ccc(S(=O)(=O)C(C)C)cc4)cnc3[nH]2)cc1 | 57 | 95 | 95 | 95 | 57 | 57 | 95 | 95 | 57 | 95 | 57 | 57 | 95 | 95 | 95 | 57 | 57 | 57
2 | CC(C)S(=O)(=O)c1ccc(-c2cnc3[nH]cc(CN4CCc5ccccc5C4)c3c2)cc1 | 62 | 101 | 101 | 101 | 62 | 62 | 101 | 101 | 62 | 101 | 62 | 62 | 101 | 101 | 101 | 62 | 62 | 62
3 | CCN1CCN(C(=O)c2cc(-c3ccc(S(C)(=O)=O)cc3)[nH]n2)CC1 | 65 | 102 | 102 | 102 | 65 | 65 | 102 | 102 | 65 | 102 | 65 | 65 | 102 | 102 | 102 | 65 | 65 | 65
4 | CCN(CC)c1ccc(CNC(=O)c2n[nH]c3ncc(-c4ccc(S(=O)(=O)C(C)C)cc4)cc23)cc1 | 57 | 83 | 83 | 83 | 57 | 57 | 83 | 83 | 57 | 83 | 57 | 57 | 83 | 83 | 83 | 57 | 57 | 57
5 | CC(C)S(=O)(=O)c1ccc(-c2cnc3[nH]c(C(=O)N4CCC(c5ccccc5)CC4)cc3c2)cc1 | 64 | 92 | 92 | 92 | 64 | 64 | 92 | 92 | 64 | 92 | 64 | 64 | 92 | 92 | 92 | 64 | 64 | 64
6 | CC(C)S(=O)(=O)c1ccc(-c2cnc3[nH]c(C(=O)Nc4ccccc4)cc3c2)cc1 | 65 | 103 | 103 | 103 | 65 | 65 | 103 | 103 | 65 | 103 | 65 | 65 | 103 | 103 | 103 | 65 | 65 | 65
7 | CC(C)S(=O)(=O)c1ccc(-c2cnc3[nH]c(C(=O)NCc4ccccc4)cc3c2)cc1 | 61 | 100 | 100 | 100 | 61 | 61 | 100 | 100 | 61 | 100 | 61 | 61 | 100 | 100 | 100 | 61 | 61 | 61
8 | CS(=O)(=O)c1ccc(-c2cc(C(=O)NCc3ccccc3)n[nH]2)cc1 | 63 | 95 | 95 | 95 | 63 | 63 | 95 | 95 | 63 | 95 | 63 | 63 | 95 | 95 | 95 | 63 | 63 | 63
9 | CC(C)S(=O)(=O)c1ccc(-c2cnc3[nH]cc(C(=O)Nc4ccc(N(C)C)cc4)c3c2)cc1 | 59 | 96 | 96 | 96 | 59 | 59 | 96 | 96 | 59 | 96 | 59 | 59 | 96 | 96 | 96 | 59 | 59 | 59
10 | CCN1CCN(C(=O)c2c[nH]c3ncc(-c4ccc(S(C)(=O)=O)cc4)cc23)CC1 | 70 | 95 | 95 | 95 | 70 | 70 | 95 | 95 | 70 | 95 | 70 | 70 | 95 | 95 | 95 | 70 | 70 | 70
11 | CCN1CCN(C2CCN(C(=O)c3cc4cc(-c5ccc(S(C)(=O)=O)cc5)cnc4[nH]3)CC2)CC1 | 67 | 96 | 96 | 96 | 67 | 67 | 96 | 96 | 67 | 96 | 67 | 67 | 96 | 96 | 96 | 67 | 67 | 67
12 | CC(C)S(=O)(=O)c1ccc(-c2cnc3[nH]nc(C(=O)NCc4ccccc4)c3c2)cc1 | 60 | 90 | 90 | 90 | 60 | 60 | 90 | 90 | 60 | 90 | 60 | 60 | 90 | 90 | 90 | 60 | 60 | 60
13 | CS(=O)(=O)c1ccc(-c2cnc3[nH]c(C(=O)N4CCC(c5ccccc5)CC4)cc3c2)cc1 | 66 | 93 | 93 | 93 | 66 | 66 | 93 | 93 | 66 | 93 | 66 | 66 | 93 | 93 | 93 | 66 | 66 | 66
